For orientation: kinetic solubility means the concentration staying in solution when a stock, usually in DMSO, is diluted into the medium. What is called EC50 is the concentration needed to bring the measured effect to its halfway point. As usually defined, the CC50 is the concentration that lowers cell viability or growth by half.

The values below come from patent US20230303599A1, “PRODRUGS OF PHOSPHONAMIDE NUCLEOTIDE ANALOGUES AND THEIR PHARMACEUTICAL USE” (priority 2020, published 2023).

Molecules are shown by their SMILES. Converted amounts (≈) assume the structure as drawn. Like-named read-outs stand apart in the source and are kept apart here.

Data set [1] can be described thus: Kinetic solubility analysis. Format: physicochemical. The note with it: 1× PBS, 24.2 °C, aqueous buffer, kinetic from dmso stock; pH 7.4 PBS, 1% DMSO, 24-hour incubation at ambient temperature. In outline: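 Compounds from 10 mM DMSO stocks were incubated in 0.1 N HCl or 1× PBS pH 7.4 (1.0% DMSO, 100 μM maximum theoretical) for 24 h at 24.2-27.5 °C, then vacuum filtered. Filtrates were quantified in μM by chemiluminescent nitrogen detection against a calibration curve, corrected for background nitrogen; values for adjacent ring-nitrogen compounds were raised ~25%.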

A further data set concerns PBMCs. The data set is described as follows: TFV-DP formation in peripheral blood mononuclear cells (PBMCs). Format: in vitro ADME, human. Particulars: 1 μM compound, 2 hrs at 37° C., 50% serum, activated PBMCs; average of at least two independent experiments. The protocol: Example 109: TFV-DP Formation in Peripheral Blood Mononuclear Cells (PBMCs)
Compounds were tested in a 96-well assay format for the level of TFV-DP loading in PBMCs in the presence of human serum. PBMCs were activated with 100 units/mL recombinant human […] and […] phytohaemagglutinin (PHA) for 36 hrs. After activation, PBMCs (2 million) were incubated with compounds (1 μM) and cell culture media with 50% serum in a 96 well plate for 2 hrs at 37° C. Cells were transferred to a 96 well deep block plate and spun down. Liquid was removed, and cells were washed 2× with 1 mL of 0.9% saline with spin downs between washes. After a final wash and liquid removal, 500 μL of MeOH+200 nM C1-ATP+200 nM [adenine-^13Cs]-tenofovir diphosphate (tetra ammonium salt) was added and thoroughly mixed with the cells. The plate was then spun down and 450 μL of sample was transferred to a new 96 well plate. Supernatants were then evaporated, reconstituted in 80 μl of 1 mM ammonium phosphate and thoroughly vortexed. Blank samples were pooled for serial dilution to construct calibration standards for TFV, TFV-DP and TFV-TP in pmol/million cells. Samples were then transferred to a short-well 96 well plate, centrifuged and injected on an LC-MS/MS for quantification. Values were reported in μM units using an intracellular volume of […].

The next data set relates to HIV-1 (IIIB). Nature of the data set: Antiviral (HIV) assay in MT-4 cells. Type of data set: cell-based. As for the experimental part:
Example 104: Antiviral (HIV) Assay in MT-4 Cells
Compounds were tested in a high-throughput 384-well assay format for their ability to inhibit the replication of HIV-1 (IIIB) in MT-4 cells. Compounds were serially diluted (1:3) in DMSO on 384-well polypropylene plates and further diluted 200-fold into complete RPMI media (10% FBS, 1% P/S) using the Biotek Micro Flow and Labcyte ECHO acoustic dispenser. Each plate contained up to 8 test compounds, with negative (no drug) and positive (5 μM AZT) controls. MT-4 cells were pre-treated with 10 μL of either RPMI (mock-infected) or a fresh 1:250 dilution of HIV-1 IIIB concentrated virus stock. Infected and uninfected MT-4 cells were further diluted in complete RPMI media and added to each plate using a Micro Flow dispenser. After 5 days incubation in a humidified and temperature-controlled incubator (37° C.), Cell Titer Glo (Promega) was added to the assay plates and chemiluminescence read using an Envision plate-reader. EC50 values were defined as the compound concentration that causes a 50% decrease in luminescence signal and were calculated using a sigmoidal dose-response model to generate curve fits and are shown in Table 1.

Data set [2] is described as follows: Cytotoxicity assay in MT-4 cells. Format: cell-based. The note with it: human, uninfected MT-4 cells, average of at least two independent experiments, read-out: MT4 CC50. In a few lines:
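Uninfected MT-4 cells were incubated 5 days at 37 °C with 1:3 serially diluted compound in RPMI (10% FBS), with 10 μM puromycin as baseline cytotoxicity. Viability was read by CellTiter-Glo luminescence. Values are concentrations giving 50% luminescence decrease, from sigmoidal dose-response fits.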

For a further data set, the system named is HBV. Nature of the data set: Antiviral (HBV) assay in primary human hepatocytes (PHHs). Format: cell-based. Particulars: Hepatitis B virus, Hepatocyte, 120 h; HBV (GTD) infected PHH, 5 days, HBV DNA in supernatant; average of at least two independent experiments. The protocol: Example 106: Antiviral (HBV) Assay in Primary Human Hepatocytes (PHHs)
Cryopreserved PHH were thawed, recovered by centrifugation at 100 g in cryopreserved hepatocyte recovery medium (Thermo Fisher Scientific; CM7500), and plated on collagen matrix (Life Technologies; Catalog Number: R-011-K) coated T225 flasks (Corning CellBIND, Catalog Number: 3293) at a density of 25E6 live cells in 60 mls media. Cells were plated in William's E medium (Thermo Fisher Scientific; A1217601) supplemented with 3.6% hepatocyte thawing and plating supplement (Thermo Fisher Scientific, A15563), 5% fetal bovine serum (Thermo Fisher Scientific; 16000-036), 1 μM dexamethasone (Thermo Fisher Scientific, A15563), and 0.2% Torpedo antibiotic mix (Bioreclamation; Z990008). The plating medium was removed after 14 hours and the cells were subsequently cultured in maintenance medium: William's E medium supplemented with 4% hepatocyte maintenance supplement (Thermo Fisher Scientific; AI15564), 2% fetal bovine serum, 0.1μ M dexamethasone, 1.5% DMSO (Sigma-Aldrich, St. Louis, MO; D8418), and 0.2% Torpedo antibiotic mix. Approximately 24 hours after plating, PHH were infected with HepAD38-derived GTD virus at 500 viral genome equivalents per cell in PHH maintenance medium supplemented with 4% PEG 8000 (Promega, Madison, WI; V3011). Infections were allowed to proceed for 24 hours before removing the remaining extracellular virions by washing with maintenance medium three times. After allowing viral infection to take place for 3 days, the infected cells were harvested from the flasks by trypsinization (0.25X in PBS without Ca/Mg, 25 minutes) following a 4 minute 0.5X Versene (Life Technologies Catalog Number: 15040-066) treatment and two PBS washes. Trypsinized cells were inactivated in 10% FBS containing maintenance medium, centrifuged 6 minutes at 50 g, resuspended in hepatocyte maintenance medium, filtered through a 40 uM cell strainer, and adjusted to a density of 0.25E6 cells/ml. Infected cells were seeded on 384 well collagen coated plates (Greiner, Austria) at a density of 20,000 cells/well containing serially diluted compounds of the present disclosure or DMSO (0.5%) in a final volume of 80 μl. The assay plates were incubated for a period of 5 days and the antiviral activity of the test compounds were assayed by detecting the presence of HBV DNA in the culture supernatant using the QuantiGene™ 2.0 nucleic acid quantification kit (Affymetrix, Santa Clara, CA).

The nature of data set [3]: Cytotoxicity assay in primary human hepatocytes (PHHs). Type of data set: cell-based. Particulars: HBV-infected primary human hepatocytes, HBV-infected PHH, Cell Titer Glo, average of at least two independent experiments. In outline: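 HBV-infected primary human hepatocytes seeded at 20K cells/well on compound-prespotted collagen plates and incubated 5 days. After removing supernatant for HBV DNA analysis, viability measured in remaining cells by CellTiter-Glo luminescence.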
For orientation: Cellular ATP, detected with luciferase, serves as a proxy for viable cell number.

Where [4] appears, read: Human immunodeficiency virus 1, IIIB, MT4, 120 h, read-out: MT4 HIV EC50 (nM).

In the case of `C[C@H](Cn1cnc2c(N)ncnc21)OCP(=O)(NC(C)(C)C(=O)O[C@H]1CC[C@H](C(C)(C)C)CC1)NC(C)(C)C(=O)O[C@H]1CC[C@H](C(C)(C)C)CC1` [Example 12, Bis(trans-4-(tert-butyl)cyclohexyl) 2,2′-((((((R)-1-(6-amino-9H-purin-9-yl)propan-2-yl)oxy)methyl)phosphoryl)bis(azanediyl))bis(2-methylpropanoate)], in data set [1], the kinetic solubility at 24 h is less than 1 µg/mL. In addition, the “Average PBMC TFV-DP (μM)” value with PBMCs is given as “BLQ”.

As for `C[C@H](Cn1cnc2c(N)ncnc21)OCP(=O)(NC(C)(C)C(=O)OCC1CCC(C)(C)CC1)NC(C)(C)C(=O)OCC1CCC(C)(C)CC1` [Example 13, Bis((4,4-dimethylcyclohexyl)methyl) 2,2′-(((((1-(6-amino-9H-purin-9-yl)propan-2-yl)oxy)methyl)phosphoryl)bis(azanediyl))(R)-bis(2-methylpropanoate)], in the data set with HIV-1 (IIIB) (Human immunodeficiency virus 1, MT4, 120 h, HIV-1 IIIB in MT-4 cells, 5 days, Cell Titer Glo, average of at least two independent experiments, read-out: MT4 HIV EC50), the EC50 was 16 nM. For the same compound, the CC50 at 5 days in data set [2] stood at 5470 nM. The compound further showed a solubility (kinetic) at 24 h in data set [1] of less than 1 µg/mL.

Take `C[C@H](Cn1cnc2c(N)ncnc21)OCP(=O)(NC(C)(C)C(=O)OC1CCOCC1)NC(C)(C)C(=O)OC1CCOCC1` [Example 24, Bis(tetrahydro-2H-pyran-4-yl) 2,2′-(((((1-(6-amino-9H-purin-9-yl)propan-2-yl)oxy)methyl)phosphoryl)bis(azanediyl))(R)-bis(2-methylpropanoate)]: the solubility (kinetic) at 24 h in data set [1] was 69 µg/mL (≈ 110 µM). Besides, the “Average PBMC TFV-DP (μM)” value in the data set with PBMCs was “BLQ”.

For `C[C@H](Cn1cnc2c(N)ncnc21)OCP(=O)(NC(C)(C)C(=O)OC1CC2(CCCCC2)C1)NC(C)(C)C(=O)OC1CC2(CCCCC2)C1` (stereo partly drawn) [Example 86, Di(spiro[3.5]nonan-2-yl) 2,2′-(((((1-(6-amino-9H-purin-9-yl)propan-2-yl)oxy)methyl)phosphoryl)bis(azanediyl))(R)-bis(2-methylpropanoate)], the figures for the CC50 at 5 days in data set [2] and in data set [3] were 3730 nM and greater than 100 nM, respectively. Besides, in the data set with HBV, it took 3.16 nM to reach a half-maximal effect (EC50). The compound also showed a solubility (kinetic) at 24 h in data set [1] of 2 µg/mL (≈ 2.85 µM).

In the case of `C[C@H](Cn1cnc2c(N)ncnc21)OCP(=O)(NC(C)(C)C(=O)OCC1CCC(F)(F)CC1)NC(C)(C)C(=O)OCC1CCC(F)(F)CC1` [Example 88, Bis((4,4-difluorocyclohexyl)methyl) 2,2′-(((((1-(6-amino-9H-purin-9-yl)propan-2-yl)oxy)methyl)phosphoryl)bis(azanediyl))(R)-bis(2-methylpropanoate)], the CC50 at 5 days in data set [2] was 7290 nM; in data set [3], greater than 100 nM. This compound also registered a 50% effective concentration (EC50) in the data set on HBV of 2.5 nM. In addition, the kinetic solubility at 24 h in data set [1] was 69 µg/mL (≈ 95.6 µM).

For the compound `C[C@H](Cn1cnc2c(N)ncnc21)OCP(=O)(NC(C)(C)C(=O)OC1CC(C2CCC2)C1)NC(C)(C)C(=O)OC1CC(C2CCC2)C1` (stereo partly drawn) [Example 90, Di([1,1′-bi(cyclobutan)]-3-yl) 2,2′-(((((1-(6-amino-9H-purin-9-yl)propan-2-yl)oxy)methyl)phosphoryl)bis(azanediyl))(R)-bis(2-methylpropanoate)], the 50% cytotoxic concentration (CC50) at 5 days in data set [2] was 5510 nM; in data set [3], greater than 100 nM. Besides, the midpoint of the response with HBV, the EC50, lay at 2.95 nM. Moreover, the solubility (kinetic) at 24 h in data set [1] worked out at 7 µg/mL (≈ 10.4 µM).

With `CCC[C@H]1CC[C@H](COC(=O)C(C)(C)NP(=O)(CO[C@H](C)Cn2cnc3c(N)ncnc32)NC(C)(C)C(=O)OC[C@H]2CC[C@H](CCC)CC2)CC1` [Example 92], the CC50 at 5 days was 7990 nM in data set [2] and greater than 100 nM in data set [3]. The EC50 with HBV is 4.56 nM. Also, the solubility (kinetic) at 24 h in data set [1] was less than 1 µg/mL.

Consider `CCCCCCOC(=O)C(C)(C)NP(=O)(CO[C@H](C)Cn1cnc2c(NC(=O)CCCSC(C)=O)ncnc21)NC(C)(C)C(=O)OCCCCCC` [Example 97, Dihexyl 2,2′-(((((1-(6-(4-(acetylthio)butanamido)-9H-purin-9-yl)propan-2-yl)oxy)methyl)phosphoryl)bis(azanediyl))(R)-bis(2-methylpropanoate)], for which the 50% effective concentration (EC50) with HIV-1 (IIIB) (setting [4]) is 13 nM. Further, the half-maximal cytotoxic concentration (CC50) at 5 days in data set [2] turned out to be 10700 nM. The compound also displayed a solubility (kinetic) at 24 h in data set [1] of 13 µg/mL (≈ 16.9 µM).

With `CCCCCCOC(=O)C(C)(C)NP(=O)(CO[C@H](C)Cn1cnc2c(NC(=O)CC(C)(C)c3c(C)cc(C)cc3OC(C)=O)ncnc21)NC(C)(C)C(=O)OCCCCCC` [Example 100, Dihexyl 2,2′-(((((1-(6-(3-(2-acetoxy-4,6-dimethylphenyl)-3-methylbutanamido)-9H-purin-9-yl)propan-2-yl)oxy)methyl)phosphoryl)bis(azanediyl))(R)-bis(2-methylpropanoate)], the EC50 in the data set with HIV-1 (IIIB) (setting [4]) was 22 nM.

With `CCCCCCOC(=O)C(C)(C)NP(=O)(CO[C@H](C)Cn1cnc2c(NC(=O)CC(C)(C)CC(=O)OCc3oc(=O)oc3C)ncnc21)NC(C)(C)C(=O)OCCCCCC` [Example 102, Dihexyl 2,2′-(((((1-(6-(3,3-dimethyl-5-((5-methyl-2-oxo-1,3-dioxol-4-yl)methoxy)-5-oxopentanamido)-9H-purin-9-yl)propan-2-yl)oxy)methyl)phosphoryl)bis(azanediyl))(R)-bis(2-methylpropanoate)], the half-maximal cytotoxic concentration (CC50) at 5 days in data set [2] turned out to be 45100 nM. Also, the solubility (kinetic) at 24 h in data set [1] was 10 µg/mL (≈ 11.4 µM). In addition, the “Average PBMC TFV-DP (μM)” value in the data set on PBMCs was “BLQ”.

Consider `C[C@H](Cn1cnc2c(N)ncnc21)OCP(=O)(NC(C)(C)C(=O)OCCc1ccccc1)NC(C)(C)C(=O)OCCc1ccccc1` [Example 103, Diphenethyl 2,2′-(((((1-(6-amino-9H-purin-9-yl)propan-2-yl)oxy)methyl)phosphoryl)bis(azanediyl))(R)-bis(2-methylpropanoate)], for which the half-maximal effective concentration (EC50) with HIV-1 (IIIB) (setting [4]) is greater than 500 nM. Further, in data set [2], the 50% cytotoxic concentration (CC50) at 5 days was greater than 42500 nM.
